In assay [1] the target is cIAP2-MALT1 fusion protein (Homo sapiens, UniProt Q9UDY8). The assay is described as follows: cell-based.
In assay [2] the target is C-domain of MALT1 (amino acids 329-824) (Homo sapiens (Human), UniProt Q9UDY8). The assay can be described thus: MALT1 biochemical assay (fluorescence lifetime enzyme activity assay). The conditions noted are these: 60 min pre-incubation, 2.5 nM enzyme, 1 μM peptide substrate. The procedure:
The readout parameter is the increase of fluorescence lifetime over time, proportional to enzyme activity.
The assay employs a short peptide substrate labeled with the single fluorophore PT14 as a fluorescence lifetime probe sensitive to the cleavage state of the substrate (PT14: 6-(9-oxo-9H-acridin-10-yl)-hexanoate, AssayMetrics, UK). […] The assay buffer consists of 200 mM Tris/HCl at pH 7.5, 0.8 M Na citrate, 100 μM EGTA, 100 μM DTT and 0.05% (w/v) CHAPS. […] Test compounds were dissolved in 100% (v/v) DMSO or a mixture containing 90% (v/v) DMSO and 10% (v/v) H2O at a stock concentration of 100 mM. Serial dilutions of test compounds were prepared using either 100% (v/v) DMSO or a mixture containing 90% (v/v) DMSO and 10% (v/v) H2O.

For another assay, the system named is Human IL2 promoter. The assay can be described thus: Human IL2 promoter reporter gene assay (RGA) in Jurkat cells. The conditions noted are these: Jurkat clone K22 290_H23, anti-CD28 mAb + PMA stimulation 5.5 h. It is filed as cell-based. The procedure: Human IL2 Promoter Reporter Gene Assay (RGA) in Jurkat Cells
The transfected Jurkat clone K22 290_H23 was propagated in RPMI 1640 supplemented with 10% heat inactivated fetal calf serum, 50 μM 2-mercaptoethanol and 1 mg/ml Geneticin. The cell concentration should not exceed 1×10e6/ml during culturing. The cells should not exceed passage 30. Prior to the assay the cells were washed and prepared to the concentration of 2×10e6 cells/ml.
Compound dilutions were made as 2×-concentrated solutions then diluted 1/2 by addition to cells. Two hundred and fifty μl of compound dilution and 250 μl of cells were mixed together in wells of a 96-deep well plate. Cells/compounds premix were incubated 30 min at 37° C. and 5% CO2 directly in the deep well plate.
After pre-incubation of cells with compounds, cells were stimulated with anti-CD28 mAb (clone 15E8) at 3 μg/ml+PMA at 1 μg/ml. Both co-stimulants were diluted in culture medium at a 10×-concentrated solution. 10 μl of co-stimulants were pipetted into the white 96-well plates and 100 μl of cell/compound mix was immediately added in duplicates. The cells were stimulated for 5.5 h at 37° C. and 5% CO2.
After cell stimulation, 50 μl of BriteLitePlus reagent (Perkin Elmer) was added to each well and the bioluminescence was measured with a Wallac EnVision reader (Perkin Elmer).
For orientation: In a reporter assay the amount or activity of a reporter protein is the signal.

SMILES strings stand for the structures. pIC50: −log10 of the molar value.

Broadly, the pIC50 is the negative decadic logarithm of the IC50, by convention in mol/L.

Sequence of C-domain of MALT1 (amino acids 329-824) (Q9UDY8 329-824): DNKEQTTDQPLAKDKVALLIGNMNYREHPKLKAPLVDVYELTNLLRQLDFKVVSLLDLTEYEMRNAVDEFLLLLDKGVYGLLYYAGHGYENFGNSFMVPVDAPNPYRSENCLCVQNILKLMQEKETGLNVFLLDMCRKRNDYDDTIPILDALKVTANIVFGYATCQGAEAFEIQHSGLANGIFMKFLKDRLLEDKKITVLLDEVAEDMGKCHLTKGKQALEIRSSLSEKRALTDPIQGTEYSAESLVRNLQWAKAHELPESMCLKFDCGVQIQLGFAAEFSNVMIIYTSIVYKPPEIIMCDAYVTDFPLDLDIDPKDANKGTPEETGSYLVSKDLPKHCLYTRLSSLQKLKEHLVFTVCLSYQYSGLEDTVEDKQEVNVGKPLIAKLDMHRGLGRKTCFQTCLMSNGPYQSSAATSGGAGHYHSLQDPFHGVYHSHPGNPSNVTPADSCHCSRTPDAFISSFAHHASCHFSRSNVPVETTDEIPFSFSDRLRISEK
Sequence of cIAP2-MALT1 fusion protein (Q9UDY8 2-824 limits assumed): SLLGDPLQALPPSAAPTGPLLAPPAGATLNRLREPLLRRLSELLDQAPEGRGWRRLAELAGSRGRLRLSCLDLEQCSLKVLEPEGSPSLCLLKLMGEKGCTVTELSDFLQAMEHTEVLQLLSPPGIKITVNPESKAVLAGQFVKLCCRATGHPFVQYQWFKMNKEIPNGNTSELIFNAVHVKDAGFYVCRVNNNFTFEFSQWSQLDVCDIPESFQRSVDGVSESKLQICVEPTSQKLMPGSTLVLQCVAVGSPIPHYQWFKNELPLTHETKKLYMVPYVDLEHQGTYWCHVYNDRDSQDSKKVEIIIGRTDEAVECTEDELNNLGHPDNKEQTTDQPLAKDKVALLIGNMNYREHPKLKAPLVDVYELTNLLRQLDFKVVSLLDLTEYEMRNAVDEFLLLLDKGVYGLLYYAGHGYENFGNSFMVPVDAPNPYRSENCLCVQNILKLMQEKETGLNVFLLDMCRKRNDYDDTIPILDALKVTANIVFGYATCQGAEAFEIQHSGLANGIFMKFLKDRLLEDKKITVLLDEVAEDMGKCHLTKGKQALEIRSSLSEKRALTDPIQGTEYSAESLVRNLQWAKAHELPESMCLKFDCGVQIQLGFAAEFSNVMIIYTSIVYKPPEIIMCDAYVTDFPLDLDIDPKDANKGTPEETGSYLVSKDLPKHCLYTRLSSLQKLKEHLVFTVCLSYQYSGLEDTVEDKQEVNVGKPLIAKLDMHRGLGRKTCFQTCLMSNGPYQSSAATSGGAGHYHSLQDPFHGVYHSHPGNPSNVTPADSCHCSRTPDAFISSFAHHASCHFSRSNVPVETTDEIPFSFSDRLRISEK

In the case of `CO[C@@H](c1c(NC(=O)Nc2cnc(-n3nccn3)c(C(F)(F)F)c2)cnc2cc(Cl)nn12)C(C)C` [Example 4, (R)-1-(6-(2H-1,2,3-triazol-2-yl)-5-(trifluoromethyl)pyridin-3-yl)-3-(2-chloro-7-(1-methoxy-2-methylpropyl)pyrazolo[1,5-a]pyrimidin-6-yl)urea], the negative logarithm of the IC50 (pIC50) is 7.21 in assay [1] and 8.22 in assay [2].

As for `CO[C@@H](c1c(NC(=O)Nc2cnc(-n3nccn3)c(Cl)c2)cnc2cc(Cl)nn12)C(C)C` [Example 5, (R)-1-(5-chloro-6-(2H-1,2,3-triazol-2-yl)pyridin-3-yl)-3-(2-chloro-7-(1-methoxy-2-methylpropyl)pyrazolo[1,5-a]pyrimidin-6-yl)urea], the pIC50 in assay [1] is 6.95; in assay [2], 8.30.

Take `COc1cc(NC(=O)Nc2cnc3cc(Cl)nn3c2[C@H](C)OC)cnc1-n1nccn1` [Example 11, (S)-1-(2-chloro-7-(1-methoxyethyl)pyrazolo[1,5-a]pyrimidin-6-yl)-3-(5-methoxy-6-(2H-1,2,3-triazol-2-yl)pyridin-3-yl)urea]: the values for the pIC50 in assay [1] and in assay [2] were 6.79 and 7.72, respectively.

In the case of `CO[C@@H](C)c1c(NC(=O)Nc2ccnc(Cl)c2)cnc2cc(Cl)nn12` [Example 12, (S)-1-(2-chloro-7-(1-methoxyethyl)pyrazolo[1,5-a]pyrimidin-6-yl)-3-(2-chloropyridin-4-yl)urea], the pIC50 in assay [1] is 7.15; in assay [2], 7.85.

Turning to `COC(C)(C)c1c(NC(=O)Nc2ccnc(C(F)(F)F)c2)cnc2cc(Cl)nn12` [Example 15, 1-(2-chloro-7-(2-methoxypropan-2-yl)pyrazolo[1,5-a]pyrimidin-6-yl)-3-(2-(trifluoromethyl)pyridin-4-yl)urea], the values for the pIC50 in assay [1] and in assay [2] were 6.96 and 8.30, respectively.

As to `CC1(c2c(NC(=O)Nc3ccnc(C(F)(F)F)c3)cnc3cc(Cl)nn23)CC1` [Example 17, 1-(2-chloro-7-(1-methylcyclopropyl)pyrazolo[1,5-a]pyrimidin-6-yl)-3-(2-(trifluoromethyl)pyridin-4-yl)urea], the pIC50 in assay [1] is 6.93; in assay [2], 7.96.

`Cc1cc(CO)nn1-c1ccc(NC(=O)Nc2cnc3cc(Cl)nn3c2C(C)C)cc1Cl` [Example 28, 1-(3-chloro-4-(3-(hydroxymethyl)-5-methyl-1H-pyrazol-1-yl)phenyl)-3-(2-chloro-7-isopropylpyrazolo[1,5-a]pyrimidin-6-yl)urea]: the pIC50 in assay [1] was 6.67.

In the case of `CC(C)c1c(NC(=O)Nc2cc(Cl)cc3c2NC(=O)C3)cnc2cc(Cl)nn12` [Example 31, 1-(5-chloro-2-oxoindolin-7-yl)-3-(2-chloro-7-isopropylpyrazolo[1,5-a]pyrimidin-6-yl)urea], the pIC50 is 6.46 in assay [1] and 7.85 in assay [2].

Turning to `CC(C)(C)c1c(NC(=O)Nc2cnc(-n3nccn3)c(Cl)c2)cnc2cc(Cl)nn12` [Example 34, 1-(7-(tert-butyl)-2-chloropyrazolo[1,5-a]pyrimidin-6-yl)-3-(5-chloro-6-(2H-1,2,3-triazol-2-yl)pyridin-3-yl)urea], the results for the pIC50 in assay [1] and in assay [2] were 6.97 and 8.40, respectively.

In the case of `CC(C)(C)OC(=O)N1CCOC(c2c(NC(=O)Nc3cnc(-n4nccn4)c(Cl)c3)cnc3cc(Cl)nn23)C1` (stereo not drawn) [Example 66, tert-butyl 2-(2-chloro-6-(3-(5-chloro-6-(2H-1,2,3-triazol-2-yl)pyridin-3-yl)ureido)pyrazolo[1,5-a]pyrimidin-7-yl)morpholine-4-carboxylate], in assay [1], the pIC50 was 6.62.

`Cn1ccnc1-c1c(NC(=O)Nc2cnc(-n3nccn3)c(Cl)c2)cnc2cc(Cl)nn12` [Example 86, 1-(5-chloro-6-(2H-1,2,3-triazol-2-yl)pyridin-3-yl)-3-(2-chloro-7-(1-methyl-1H-imidazol-2-yl)pyrazolo[1,5-a]pyrimidin-6-yl)urea] had a pIC50 in assay [1] of 6.24.

In the case of `CN(C)C1(c2c(NC(=O)Nc3cnc(-n4nccn4)c(C(F)(F)F)c3)cnc3cc(Cl)nn23)CC1` [Example 107, 1-(6-(2H-1,2,3-triazol-2-yl)-5-(trifluoromethyl)pyridin-3-yl)-3-(2-chloro-7-(1-(dimethylamino)cyclopropyl)pyrazolo[1,5-a]pyrimidin-6-yl)urea], the pIC50 in assay [2] was 7.89; in the assay with Human IL2 promoter, 7.22.

As to `COCC(OC)c1c(NC(=O)Nc2cnc(-n3nccn3)c(C(F)(F)F)c2)cnc2cc(Cl)nn12` (stereo not drawn) [Example 108, 1-(6-(2H-1,2,3-triazol-2-yl)-5-(trifluoromethyl)pyridin-3-yl)-3-(2-chloro-7-(1,2-dimethoxyethyl)pyrazolo[1,5-a]pyrimidin-6-yl)urea], the pIC50 in assay [2] is 8.10; with Human IL2 promoter, 7.28.

Consider `COCC(OC)c1c(NC(=O)Nc2ccnc(C(F)(F)F)c2)cnc2cc(Cl)nn12` (stereo not drawn) [Example 109, 1-(2-chloro-7-(1,2-dimethoxyethyl)pyrazolo[1,5-a]pyrimidin-6-yl)-3-(2-(trifluoromethyl)pyridin-4-yl)urea], for which the pIC50 in assay [2] was 7.28; with Human IL2 promoter, 6.66.

`COC[C@@H](C)c1c(NC(=O)Nc2cnc(-n3nccn3)c(C(F)(F)F)c2)cnc2cc(Cl)nn12` [Example 110, (S)-1-(6-(2H-1,2,3-triazol-2-yl)-5-(trilfuoromethyl)pyridin-3-yl)-3-(2-chloro-7-(1-methoxypropan-2-yl)pyrazolo[1,5-a]pyrimidin-6-yl)urea]: the values for the pIC50 (in assay [2]; in the assay on Human IL2 promoter) were 8.05 and 6.94, respectively.

On to `COC[C@H](C)c1c(NC(=O)Nc2cnc(-n3nccn3)c(C(F)(F)F)c2)cnc2cc(Cl)nn12` [Example 111, (R)-1-(6-(2H-1,2,3-triazol-2-yl)-5-(trifluoromethyl)pyridin-3-yl)-3-(2-chloro-7-(1-methoxypropan-2-yl)pyrazolo[1,5-a]pyrimidin-6-yl)urea], for which the pIC50 in assay [2] is 8.52; in the assay on Human IL2 promoter, 7.27.

`CN[C@@H](C)c1c(NC(=O)Nc2cnc(-n3nccn3)c(Cl)c2)cnc2cc(Cl)nn12` [Example 119, (S)-1-(5-chloro-6-(2H-1,2,3-triazol-2-yl)pyridin-3-yl)-3-(2-chloro-7-(1-(methylamino)ethyl)pyrazolo[1,5-a]pyrimidin-6-yl)urea] gave a pIC50 in assay [1] of 6.80.

For the compound `CN[C@H](c1c(NC(=O)Nc2cnc(-n3nccn3)c(Cl)c2)cnc2cc(Cl)nn12)C(C)C` [Example 124, (S)-1-(5-chloro-6-(2H-1,2,3-triazol-2-yl)pyridin-3-yl)-3-(2-chloro-7-(2-methyl-1-(methylamino)propyl)pyrazolo[1,5-a]pyrimidin-6-yl)urea], the pIC50 in assay [2] is 8.10; with Human IL2 promoter, 7.39.

With `CN1CCOCC1c1c(NC(=O)Nc2cnc(-n3nccn3)c(Cl)c2)cnc2cc(Cl)nn12` (stereo not drawn) [Example 125, 1-(5-chloro-6-(2H-1,2,3-triazol-2-yl)pyridin-3-yl)-3-(2-chloro-7-(4-methylmorpholin-3-yl)pyrazolo[1,5-a]pyrimidin-6-yl)urea], the results for the negative logarithm of the IC50 (pIC50) (in assay [2]; with Human IL2 promoter) were 8.05 and 6.86, respectively.

For `COC[C@@H](OC)c1c(NC(=O)Nc2cnc(-n3nccn3)c(Cl)c2)cnc2cc(Cl)nn12` [Example 127, (S)-1-(5-chloro-6-(2H-1,2,3-triazol-2-yl)pyridin-3-yl)-3-(2-chloro-7-(1,2-dimethoxyethyl)pyrazolo[1,5-a]pyrimidin-6-yl)urea], the figures for the pIC50 (in assay [2]; in the assay on Human IL2 promoter) were 8.05 and 7.11, respectively.

The values are drawn from US9815842B2, “Pyrazolo pyrimidine derivatives and their use as MALT1 inhibitors” (Novartis AG, priority 2014, dated 2017).
